Where “and” joins values, the source holds several entries; their conditions need not be identical. Identical values can stand only once.
Tests used:
[1] = system: Staph Russell; experiment: standard MIC test (synergistic and antibacterial properties); type: cell-based; conditions: substance alone, in µg/mL (unit assumed)
[2] = system: Kleb E70; experiment: as above; type: cell-based; conditions: substance alone; Kleb E70 (printed Kleb Eto in the 1st table); unit assumed
[3] = system: E.coli JT39; experiment: as above; type: cell-based; conditions: substance alone, unit assumed
[4] = system: E. coli strain E96; experiment: in-vivo subcutaneous synergistic activity with amoxycillin against intraperitoneal infection in mice; conditions: Escherichia coli, sc, amoxycillin alone, read-out: CD50 (the source's name)
[5] = system: E. coli strain E124; experiment: as above; conditions: Escherichia coli, sc, amoxycillin alone, read-out: CD50 (the source's name)

SMILES	MIC [1]	MIC [2]	MIC [3]	ED50 [4]	ED50 [5]
CC(C)NCC=C1OC2CC(=O)N2C1C(=O)O (stereo not shown) [Example 1, 9-N-Isopropylaminodeoxyclavulanic acid]	8	500 µg/mL	31.2 µg/mL	–	–
O=C(O)C1C(=CCNC2CCCC2)OC2CC(=O)N21 (stereo not shown) [Example 2, 9-N-Cyclopentylaminodeoxyclavulanic acid]	16	> 500 µg/mL	31.2 µg/mL	–	–
CC1(C)S[C@@H]2[C@H](NC(=O)[C@H](N)c3ccc(O)cc3)C(=O)N2[C@H]1C(=O)O [Amoxycillin]	–	–	–	> 1000 mg/kg	> 1000 mg/kg
O=C(O)[C@H]1/C(=C/CO)O[C@@H]2CC(=O)N21 [Clavulanic acid]	16 and 31.2	–	16 µg/mL	–	–
O=C(O)C1C(=CCNC2CCCCC2)OC2CC(=O)N21 (stereo not shown) [Example 3, 9-N-Cyclohexylaminodeoxyclavulanic acid]	8.0	500 µg/mL	62.5 µg/mL	–	–

— patent EP0021836A1, “Clavulanic acid derivatives, process for their preparation and pharmaceutical compositions containing them” (BEECHAM GROUP PLC, priority 1979, dated 1981)
